Measured values as given in US20210205292A1, “INHIBITORS OF CREB-CBP INTERACTION FOR TREATMENT OF LEUKEMIA” (The Board of Trustees of the Leland Stanford Junior …, priority 2016, published 2021).

Assays:
Type in all cases: cell-based
[1] = system: Jukat (human T lymphocyte cell line for acute T cell leukemia); experiment: CellTiter Glo assay in Jukat cells
Description: (§1) The compounds prepared according to the methods described herein and tested for activity in the CellTiter Glo assay in HL60 (Human promyelocytic leukemia cell line), Jukat (human T lymphocyte cell line for acute T cell leukemia) and/or Nalm6 (human ALL cell line) cells.
(§2) Compounds were prepared according to the methods described herein and tested for activity in the CellTiter Glo assay in HL60 (Human promyelocytic leukemia cell line), Jukat (human T lymphocyte cell line for acute Tcell leukemia) and/or Nalm6 (human ALL cell line) cells.

[2] = system: HL60 (Human promyelocytic leukemia cell line); experiment: CellTiter Glo assay in HL60 cells
Description: as §1, §2

[3] = system: Nalm6 (human ALL cell line); experiment: CellTiter Glo assay in Nalm6 cells
Description: as §1, §2

Compound	IC50 ([1]; Table 5) [nM]	IC50 ([2]; HL-60, Table 5) [nM]	IC50 ([1]; second Table 4) [nM]	IC50 ([2]; HL-60, second Table 4) [nM]	IC50 ([3]; NALM-6, Table 5) [nM]	IC50 ([3]; NALM-6, second Table 4) [nM]
Cc1ccc(C#N)c(NC(=O)c2ccc3cccnc3c2O)c1 [Compound 86]	100 to 1000	1000 to 10000	–	–	100 to 1000	–
Cc1cc(NC(=O)c2cc(Cl)ccc2O)ccc1[N+](=O)[O-] [Compound 25]	–	–	–	< 1000	–	–
Cc1cc(Cl)ccc1NC(=O)c1cc(F)ccc1O [Compound 36]	–	–	–	1000 to 10000	–	–
CC(=O)Oc1ccc(F)cc1C(=O)Nc1ccc(Br)c(Cl)c1 [Compound 27]	–	–	< 1000	< 1000	–	–
N#Cc1ccc(NC(=O)c2cc(Cl)ccc2O)cc1 [Compound 3]	–	–	–	< 1000	–	–
O=C(Nc1ccccc1C(F)(F)F)c1cc(F)ccc1O [Compound 62]	–	–	–	1000 to 10000	–	–
COc1ccc(NC(=O)c2cc(F)ccc2O)cc1 [Compound 54]	–	–	> 10000	1000 to 10000	–	> 10000
N#Cc1ccc(NC(=O)c2cc(Br)ccc2O)cc1Cl [Compound 7]	–	–	–	< 1000	–	–
N#Cc1ccc(Cl)c(NC(=O)c2ccc3cccnc3c2O)c1 [Compound 80]	100 to 1000	100 to 1000	–	–	100 to 1000	–
O=C(Nc1cccc(OC(F)(F)F)c1)c1cc(F)ccc1O [Compound 52]	–	–	< 1000	< 1000	–	1000 to 10000
O=C(Nc1ccc(OC(F)(F)F)cc1)c1cc(F)ccc1O [Compound 45]	–	–	< 1000	< 1000	–	1000 to 10000
O=C(Nc1ccc([N+](=O)[O-])cc1Cl)c1ccc2cccnc2c1O [Compound 82]	100 to 1000	100 to 1000	–	–	< 100	–
O=C(Nc1ccc(Cl)cc1F)c1cc(F)ccc1O [Compound 37]	–	–	< 1000	1000 to 10000	–	1000 to 10000
Cc1cc(NC(=O)c2cc(F)ccc2O)ccc1Cl [Compound 34]	–	–	–	< 1000	–	–
N#Cc1ccc(NC(=O)c2cc(F)ccc2O)cc1 [Compound 8]	–	–	–	< 1000	–	–
N#Cc1ccc(NC(=O)c2ccc(C(F)(F)F)cc2O)cc1 [Compound 17]	–	–	< 1000	< 1000	–	< 1000
O=C(Nc1cc(Cl)ccc1Cl)c1ccc2cccnc2c1O [Compound 83]	100 to 1000	1000 to 10000	–	–	100 to 1000	–
Cc1ccc(NC(=O)c2cc(F)ccc2O)cc1C#N [Compound 19]	–	–	–	1000 to 10000	–	–
N#Cc1ccc(NC(=O)c2ccc(Br)cc2O)cc1 [Compound 9]	–	–	–	< 1000	–	–
O=C(Nc1ccc(F)c(C(F)(F)F)c1)c1cc(F)ccc1O [Compound 48]	–	–	< 1000	< 1000	–	1000 to 10000
Cc1cc(C#N)ccc1NC(=O)c1ccc2cccnc2c1O [Compound 78]	100 to 1000	100 to 1000	–	–	< 100	–
N#Cc1ccc(NC(=O)c2cc(-c3ccccc3)ccc2O)cc1 [Compound 15]	–	–	< 1000	1000 to 10000	–	1000 to 10000
Cc1cc(NC(=O)c2cc(F)ccc2O)ccc1C#N [Compound 6]	–	–	–	< 1000	–	–

Compound	IC50 ([1]; Table 5) [nM]	IC50 ([2]; HL-60, Table 5) [nM]	IC50 ([1]; second Table 4) [nM]	IC50 ([2]; HL-60, second Table 4) [nM]	IC50 ([3]; NALM-6, Table 5) [nM]	IC50 ([3]; NALM-6, second Table 4) [nM]
O=C(Nc1ccc(Br)c(Cl)c1)c1cc(F)ccc1O [Compound 26]	–	–	–	< 1000	–	–
Cc1cccc(Cl)c1NC(=O)c1ccc2cccnc2c1O [Compound 79]	1000 to 10000	1000 to 10000	–	–	1000 to 10000	–
Cc1cc(NC(=O)c2cc(Cl)ccc2O)ccc1Cl [Compound 35]	–	–	–	< 1000	–	–
N#Cc1ccc(NC(=O)c2cc(Cl)c(F)cc2O)cc1 [Compound 161]	–	–	< 1000	< 1000	–	> 10000
O=C(Nc1cc(C(F)(F)F)cc(C(F)(F)F)c1)c1ccc2cccnc2c1O [Compound 70]	100 to 1000	1000 to 10000	–	–	1000 to 10000	–
COc1cc(NC(=O)c2cc(F)ccc2O)ccc1F [Compound 55]	–	–	–	1000 to 10000	–	–
O=C(Nc1cccc(C(F)(F)F)c1)c1cc(F)ccc1O [Compound 50]	–	–	< 1000	< 1000	–	1000 to 10000
N#Cc1ccc(NC(=O)c2ccc(Br)cc2O)cc1Cl [Compound 13]	–	–	–	< 1000	–	–
N#Cc1ccc(NC(=O)c2cc(-c3ccco3)c3cccnc3c2O)cc1 [Compound 72]	100 to 1000	100 to 1000	–	–	100 to 1000	–
O=C(Nc1ccc(Cl)c(C(F)(F)F)c1)c1cc(F)ccc1O [Compound 47]	–	–	> 10000	< 1000	–	< 1000
N#Cc1ccc(NC(=O)c2cc(-c3ccccc3)c3cccnc3c2O)cc1 [Compound 65]	100 to 1000	100 to 1000	–	–	100 to 1000	–
Cc1ccc(C(F)(F)F)cc1NC(=O)c1cc(F)ccc1O [Compound 63]	–	–	< 1000	< 1000	–	1000 to 10000
O=C(Nc1cccc(F)c1F)c1cc(F)ccc1O [Compound 40]	–	–	1000 to 10000	1000 to 10000	–	1000 to 10000
N#Cc1ccc(NC(=O)c2ccc3cccnc3c2O)c(Cl)c1 [Compound 77]	100 to 1000	100 to 1000	–	–	100 to 1000	–
N#Cc1ccc(NC(=O)c2ccc(Br)cc2O)c(F)c1 [Compound 12]	–	–	–	< 1000	–	–
N#Cc1ccc(NC(=O)c2cc(Br)ccc2O)cc1 [Compound 2]	–	–	–	< 1000	–	–
N#Cc1ccc(NC(=O)c2ccc(Br)cc2O)c(Cl)c1 [Compound 11]	–	–	–	< 1000	–	–
O=C(Nc1ccc([N+](=O)[O-])cc1)c1cc(F)ccc1O [Compound 160]	–	–	–	< 1000	–	–
N#Cc1ccc(NC(=O)c2ccc(F)cc2O)cc1 [Compound 10]	–	–	–	< 1000	–	–
N#Cc1ccc(NC(=O)c2cc(F)ccc2O)cc1Cl [Compound 5]	–	–	–	< 1000	–	–
N#Cc1ccc(NC(=O)c2ccc(Cl)cc2O)cc1 [Compound 16]	–	–	–	< 1000	–	–
O=C(Nc1ccc(Br)c(Cl)c1)c1cc(Cl)ccc1O [Compound 30]	–	–	–	< 1000	–	–

The next lines start with results.

IC50 ([1]; Table 5) [nM]	IC50 ([2]; HL-60, Table 5) [nM]	IC50 ([1]; second Table 4) [nM]	IC50 ([2]; HL-60, second Table 4) [nM]	Compound	IC50 ([3]; NALM-6, Table 5) [nM]	IC50 ([3]; NALM-6, second Table 4) [nM]
–	–	< 1000	1000 to 10000	Cc1cc(NC(=O)c2cc(F)ccc2O)ccc1F [Compound 56]	–	1000 to 10000
100 to 1000	100 to 1000	–	–	O=C(Nc1ccc(Cl)cc1Cl)c1ccc2cccnc2c1O [Compound 81]	100 to 1000	–
–	–	–	1000 to 10000	O=C(Nc1ccc(-c2ccccc2)cc1)c1cc(F)ccc1O [Compound 53]	–	–
–	1000 to 10000	–	–	Cc1ccc(NC(=O)c2ccc3cccnc3c2O)c(C)c1 [Compound 89]	–	–
–	–	1000 to 10000	1000 to 10000	N#Cc1ccc(NC(=O)c2cc(-c3cc(F)cc(F)c3)ccc2O)cc1 [Compound 233]	–	1000 to 10000
100 to 1000	100 to 1000	–	–	O=C(Nc1ccc(C(F)(F)F)cc1)c1ccc2cccnc2c1O [Compound 66]	100 to 1000	–
100 to 1000	100 to 1000	–	–	O=C(Nc1cc(F)cc(F)c1)c1ccc2cccnc2c1O [Compound 69]	100 to 1000	–
–	–	–	1000 to 10000	O=C(Nc1ccccc1F)c1cc(F)ccc1O [Compound 61]	–	–
–	–	–	< 1000	O=C(Nc1cc(F)cc(F)c1)c1cc(F)ccc1O [Compound 41]	–	–
–	–	< 1000	< 1000	O=C(Nc1ccc([N+](=O)[O-])cc1Cl)c1cc(Cl)ccc1O [Compound 23]	–	< 1000
–	–	< 1000	< 1000	O=C(Nc1cc(Cl)cc(Cl)c1)c1cc(F)ccc1O [Compound 42]	–	1000 to 10000
–	–	1000 to 10000	1000 to 10000	O=C(Nc1ccc(F)cc1F)c1cc(F)ccc1O [Compound 39]	–	1000 to 10000
< 100	100 to 1000	–	–	N#Cc1ccc(NC(=O)c2cc(Br)c3cccnc3c2O)cc1 [Compound 71]	< 100	–
–	–	< 1000	< 1000	O=C(Nc1ccc(F)c(F)c1)c1cc(F)ccc1O [Compound 32]	–	1000 to 10000
–	–	> 10000	< 1000	O=C(Nc1ccc(Cl)cc1Cl)c1cc(F)ccc1O [Compound 38]	–	1000 to 10000
–	–	< 1000	< 1000	O=C(Nc1cc(C(F)(F)F)cc(C(F)(F)F)c1)c1cc(Br)ccc1O [Compound 159]	–	< 1000

IC50 ([1]; Table 5) [nM]	IC50 ([2]; HL-60, Table 5) [nM]	IC50 ([1]; second Table 4) [nM]	IC50 ([2]; HL-60, second Table 4) [nM]	Compound	IC50 ([3]; NALM-6, Table 5) [nM]	IC50 ([3]; NALM-6, second Table 4) [nM]
100 to 1000	100 to 1000	–	–	N#Cc1ccc(NC(=O)c2ccc3cccnc3c2O)cc1 [Compound 64]	< 100	–
–	–	1000 to 10000	< 1000	Cc1ccc(NC(=O)c2cc(F)ccc2O)cc1C(F)(F)F [Compound 49]	–	1000 to 10000
–	100 to 1000	–	–	O=C(Nc1c(Cl)cccc1Cl)c1ccc2cccnc2c1O [Compound 87]	–	–
–	–	1000 to 10000	1000 to 10000	N#Cc1cc(NC(=O)c2cc(F)ccc2O)ccc1F [Compound 20]	–	1000 to 10000
–	–	1000 to 10000	1000 to 10000	O=C(Nc1cccc(F)c1)c1cc(F)ccc1O [Compound 33]	–	1000 to 10000
–	–	–	1000 to 10000	N#Cc1ccc(NC(=O)c2ccccc2O)cc1 [Compound 1]	–	–
100 to 1000	100 to 1000	–	–	O=C(Nc1ccc(Br)c(Cl)c1)c1ccc2cccnc2c1O [Compound 68]	100 to 1000	–
–	–	< 1000	< 1000	O=C(Nc1ccc(OC(F)(F)F)c(Cl)c1)c1cc(F)ccc1O [Compound 46]	–	< 1000
–	–	< 1000	< 1000	N#Cc1ccc(NC(=O)c2ccc(-c3ccccc3)cc2O)cc1 [Compound 101]	–	< 1000
–	100 to 1000	–	–	CC(=O)Oc1c(C(=O)Nc2ccc(C#N)cc2)ccc2cccnc12 [Compound 74]	–	–
–	–	< 1000	< 1000	O=C(Nc1ccc(Cl)c(Cl)c1)c1cc(F)ccc1O [Compound 31]	–	1000 to 10000
–	–	< 1000	< 1000	CC(=O)Oc1ccc(Cl)cc1C(=O)Nc1ccc([N+](=O)[O-])cc1Cl [Compound 24]	–	< 1000
–	–	–	< 1000	O=C(Nc1ccc([N+](=O)[O-])cc1Cl)c1cc(F)ccc1O [Compound 22]	–	–
–	–	–	< 1000	Cc1cc(NC(=O)c2cc(F)ccc2O)ccc1[N+](=O)[O-] [Compound 21]	–	–
–	100 to 1000	–	–	N#Cc1ccc(C#N)c(NC(=O)c2ccc3cccnc3c2O)c1 [Compound 88]	–	–
